Results reported in patent US9227971B2, “Pyrazolo[1,5-a]pyrimidine compounds as mTOR inhibitors” (Merck Sharp & Dohme Corp., priority 2010, dated 2016).
Read-outs that look alike come from different tables or passages of the source.

Assays:
[1] = test system: phosphorylated AKT Ser473 (pAKT S473), mTORC2 activity, PC3 cells; experiment: mTOR target engagement assay, immunofluorescent cell-based, pAKT S473 readout (mTORC2 activity)
Summary of the method: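 After blocking, cells were stained overnight at 4 °C with anti-pAKT S473 antibody, then a fluorescent secondary; inhibition was read as reduced fluorescence intensity.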

[2] = test system: phosphorylated 4E-BP1 Thr37/46 (p4E-BP1 Thr37/46), mTORC1 activity, PC3 cells; experiment: mTOR target engagement assay, immunofluorescent cell-based, p4E-BP1 Thr37/46 readout (mTORC1 activity); conditions: read-out: p4E-BP1 Thr37/46 IC50
Summary of the method: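 PTEN-mutant PC3 prostate cells were treated with serially diluted compound in 5% FBS F12 medium (0.25% DMSO) for ninety minutes at 37° C, glyoxal-fixed, then immunostained overnight at 4° C for p4E-BP1 Thr37/46 with an Alexa Fluor 488 secondary. IC50 came from four-parameter fits of fluorescence, DMSO-only wells defining 100%.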

[3] = Homo sapiens, PC-3, Table 3-1, PC3 cells
[4] = Homo sapiens, PC-3, PC3 cells, compound treatment ninety minutes at 37° C.
[5] = Homo sapiens, PC-3, Table 7-9 (no column head printed; column order as in the neighbouring tables), PC3 cells
[6] = Homo sapiens, PC-3, Table 6-1, PC3 cells

Compound	IC50 [1, 3] [nM]	IC50 [2, 3] [nM]	IC50 [1, 4] [nM]	IC50 [2, 4] [nM]	other results
CS(=O)(=O)c1c([C@@H]2C[C@H]3CC[C@@H](C2)N3C(=O)c2nnc[nH]2)nc2c(-c3cnn(-c4ccc(F)cc4)c3)cnn2c1N [Compound 3.88, ((1R,3s,5S)-3-(7-amino-3-(1-(4-fluorophenyl)-1H-pyrazol-4-yl)-6-(methyslulfonyl)pyrazolo[1,5-a]pyrimidin-5-yl)-8-azabicyclo[3.2.1]octan-8-yl)(4H-1,2,4-triazol-3-yl)methanone]	100 to 1000	1000 to 10000			
Cc1nc(N)ncc1C(=O)N1[C@@H]2CC[C@H]1C[C@H](c1nc3c(-c4ccc(-c5ccccc5)nc4)cnn3c(N)c1S(C)(=O)=O)C2 [Compound 3.137, (2-amino-4-methylpyrimidin-5-yl)((1R,3a,5S)-3-(7-amino-6-(methylsulfonyl)-3-(6-phenylpyridin-3-yl)pyrazolo[1,5-a]pyrimidin-5-yl)-8-azabicyclo[3.2.1]octan-8-yl)methanone]	1000 to 10000	1000 to 10000			
CC(=O)c1c([C@@H]2C[C@H]3CC[C@@H](C2)N3C(=O)c2cc(N)n[nH]2)nc2c(-c3ccc(C(N)(C(F)(F)F)C(F)(F)F)nc3)cnn2c1N [Compound 7.84, 1-(7-amino-3-(6-(2-amino-1,1,1,3,3,3-hexafluoropropan-2-yl)pyridin-3-yl)-5-((1R,3s,5S)-8-(3-amino-1H-pyrazole-5-carbonyl)-8-azabicyclo[3.2.1]octan-3-yl)pyrazolo[1,5-a]pyrimidin-6-yl)ethanone]					IC50 ([1]; Homo sapiens, PC-3, PC3 cells): 1000 to 10000 nM; IC50 ([2]; Homo sapiens, PC-3, PC3 cells): 1000 to 10000 nM
CC(=O)c1c([C@H]2C[C@H]3CC[C@@H](C2)N3C(=O)CO)nc2c(-c3ccc(-c4ccccc4)nc3)cnn2c1N [Compound 1.1.9, 1-((1R,3r,5S)-3-(6-acetyl-7-amino-3-(6-phenylpyridin-3-yl)pyrazolo[1,5-a]pyrimidin-5-yl)-8-azabicyclo[3.2.1]octan-8-yl)-2-hydroxyethanone]			100 to 1000	100 to 1000	
CS(=O)(=O)c1c([C@@H]2C[C@H]3CC[C@@H](C2)N3C(=O)c2c[nH]c(=O)[nH]2)nc2c(-c3ccc(-c4ccccc4)nc3)cnn2c1N [Compound 3.139, 4-((1R,3s,5S)-3-(7-amino-6-(methylsulfonyl)-3-(6-phenylpyridin-3-yl)pyrazolo[1,5-a]pyrimidin-5-yl)-8-azabicyclo[3.2.1]octane-8-carbonyl)-1H-imidazol-2(3H)-one]	1 to 100	100 to 1000			
Cc1nc(-c2ccc(-c3cnn4c(N)c(S(C)(=O)=O)c([C@@H]5C[C@H]6CC[C@@H](C5)N6C(=O)c5cn[nH]n5)nc34)cn2)cs1 [Compound 3.201, ((1R,3s,5S)-3-(7-amino-6-(methylsulfonyl)-3-(6-(2-methylthiazol-4-yl)pyridin-3-yl)pyrazolo[1,5-a]pyrimidin-5-yl)-8-azabicyclo[3.2.1]octan-8-yl)(2H-1,2,3-triazol-4-yl)methanone]	100 to 1000	1000 to 10000			
Cc1csc(-c2ccc(-c3cnn4c(N)c(S(C)(=O)=O)c([C@@H]5C[C@H]6CC[C@@H](C5)N6C(=O)c5nnc(C)[nH]5)nc34)cn2)n1 [Compound 3.191, ((1R,3s,5S)-3-(7-amino-6-(methylsulfonyl)-3-(6-(4-methylthiazol-2-yl)pyridin-3-yl)pyrazolo[1,5-a]pyrimidin-5-yl)-8-azabicyclo[3.2.1]octan-8-yl)(5-methyl-4H-1,2,4-triazol-3-yl)methanone]	100 to 1000	100 to 1000			
CS(=O)(=O)c1c(C2CC3COCC(C2)N3C(=O)c2nc[nH]n2)nc2c(-c3ccc(-c4ccccc4)nc3)cnn2c1N (single isomer, unassigned) [Compound 8.31, (7-(7-amino-6-(methylsulfonyl)-3-(6-phenylpyridin-3-yl)pyrazolo[1,5-a]pyrimidin-5-yl)-3-oxa-9-azabicyclo[3.3.1]nonan-9-yl)(1H-1,2,4-triazol-3-yl)methanone]					IC50 ([1]; PC3 cells): 100 to 1000 nM; IC50 ([2]; PC3 cells): 100 to 1000 nM
Nc1cc([C@@H]2C[C@H]3CC[C@@H](C2)N3C(=O)CO)nc2c(-c3ccc(-c4ccccc4)nc3)cnn12 [Compound 2.8, 1-((1R,3s,5S)-3-(7-amino-3-(6-phenylpyridin-3-yl)pyrazolo[1,5-a]pyrimidin-5-yl)-8-azabicyclo[3.2.1]octan-8-yl)-2-hydroxyethanone]			100 to 1000	1000 to 10000	
CC(=O)c1c([C@@H]2C[C@H]3CC[C@@H](C2)N3C(=O)c2ncn[nH]2)nc2c(-c3cnc(C(C)(C)O)c(F)c3)cnn2c1N [Compound 7.98, 1-(5-((1R,3s,5S)-8-(1H-1,2,4-triazole-5-carbonyl)-8-azabicyclo[3.2.1]octan-3-yl)-7-amino-3-(5-fluoro-6-(2-hydroxypropan-2-yl)pyridin-3-yl)pyrazolo[1,5-a]pyrimidin-6-yl)ethanone]					IC50 ([1]; Homo sapiens, PC-3, PC3 cells): 1 to 100 nM; IC50 ([2]; Homo sapiens, PC-3, PC3 cells): 1 to 100 nM
CC(=O)c1c([C@@H]2C[C@H]3CC[C@@H](C2)N3C(=O)[C@@H](C)O)nc2c(-c3ccc(-c4ccc(F)cc4F)nc3)cnn2c1N [Compound 1.1.168, (R)-1-((1R,3S,5S)-3-(6-acetyl-7-amino-3-(6-(2,4-difluorophenyl)pyridin-3-yl)pyrazolo[1,5-a]pyrimidin-5-yl)-8-azabicyclo[3.2.1]octan-8-yl)-2-hydroxypropan-1-one]			100 to 1000	100 to 1000	
CC(=O)c1c([C@@H]2C[C@H]3CC[C@@H](C2)N3C(=O)c2nnc[nH]2)nc2c(-c3ccc(C(O)CO)nc3)cnn2c1N (stereo partly drawn) [Compound 7.52, 1-(5-((1R,3s,5S)-8-(4H-1,2,4-triazole-3-carbonyl)-8-azabicyclo[3.2.1]octan-3-yl)-7-amino-3-(6-(1,2-dihydroxyethyl)pyridin-3-yl)pyrazolo[1,5-a]pyrimidin-6-yl)ethanone]					IC50 [1, 5]: 1000 to 10000 nM; IC50 [2, 5]: 1000 to 10000 nM
COc1ccc(-c2ccc(-c3cnn4c(N)c(C(C)=O)c([C@@H]5C[C@H]6CC[C@@H](C5)N6C(=O)C(C)(CO)CO)nc34)cn2)cc1F [Compound 1.1.59, 1-((1R,3s,5S)-3-(6-acetyl-7-amino-3-(6-(3-fluoro-4-methoxyphenyl)pyridin-3-yl)pyrazolo[1,5-a]pyrimidin-5-yl)-8-azabicyclo[3.2.1]octan-8-yl)-3-hydroxy-2-(hydroxymethyl)-2-methylpropan-1-one]			1 to 100	1 to 100	
CC(=O)c1c([C@@H]2C[C@H]3CC[C@@H](C2)N3C(=O)c2nnc[nH]2)nc2c(-c3ccc(-c4ncc[nH]4)c(F)c3)cnn2c1N [Compound 6.41, 1-(5-((1R,3s,5S)-8-(4H-1,2,4-triazole-3-carbonyl)-8-azabicyclo[3.2.1]octan-3-yl)-7-amino-3-(3-fluoro-4-(1H-imidazol-2-yl)phenyl)pyrazolo[1,5-a]pyrimidin-6-yl)ethanone]					IC50 [1, 6]: 1 to 100 nM; IC50 [2, 6]: 1 to 100 nM
Cc1csc(-c2ccc(-c3cnn4c(N)c(S(C)(=O)=O)c([C@@H]5C[C@H]6CC[C@@H](C5)N6C(=O)c5nnc[nH]5)nc34)cn2)n1 [Compound 3.192, ((1R,3s,5S)-3-(7-amino-6-(methylsulfonyl)-3-(6-(4-methylthiazol-2-yl)pyridin-3-yl)pyrazolo[1,5-a]pyrimidin-5-yl)-8-azabicyclo[3.2.1]octan-8-yl)(4H-1,2,4-triazol-3-yl)methanone]	100 to 1000	100 to 1000			
CS(=O)(=O)c1c([C@@H]2C[C@H]3CC[C@@H](C2)N3C(=O)CO)nc2c(-c3ccc(-n4cccn4)nc3)cnn2c1N [Compound 3.153, 1-((1R,3s,5S)-3-(3-(6-(1H-pyrazol-1-yl)pyridin-3-yl)-7-amino-6-(methylsulfonyl)pyrazolo[1,5-a]pyrimidin-5-yl)-8-azabicyclo[3.2.1]octan-8-yl)-2-hydroxyethanone]	100 to 1000	1000 to 10000			
COCCOc1ccc(-c2ccc(-c3cnn4c(N)c(C5CC5)c([C@@H]5C[C@H]6CC[C@@H](C5)N6C(=O)c5nnc[nH]5)nc34)cn2)cc1 [Compound 4.14, ((1R,3s,5S)-3-(7-amino-6-cyclopropyl-3-(6-(4-(2-methoxyethoxy)phenyl)pyridin-3-yl)pyrazolo[1,5-a]pyrimidin-5-yl)-8-azabicyclo[3.2.1]octan-8-yl)(4H-1,2,4-triazol-3-yl)methanone]			100 to 1000	100 to 1000	
CC(=O)c1c([C@@H]2C[C@H]3CC[C@@H](C2)N3C(=O)c2nnc(O)[nH]2)nc2c(-c3ccc(-c4ccccc4)nc3)cnn2c1N [Compound 1.1.40, 1-(7-amino-5-((1R,3s,5S)-8-(5-hydroxy-4H-1,2,4-triazole-3-carbonyl)-8-azabicyclo[3.2.1]octan-3-yl)-3-(6-phenylpyridin-3-yl)pyrazolo[1,5-a]pyrimidin-6-yl)ethanone]			100 to 1000	100 to 1000	
1-((1R,3s,5S)-3-(6-acetyl-7-amino-3-(6-(cyclopropylamino)pyridin-3-yl)pyrazolo[1,5-a]pyrimidin-5-yl)-8-azabicyclo[3.2.1]octan-8-yl)-2-hydroxyethanone [Compound 8.50]					IC50 ([1]; PC3 cells): 100 to 1000 nM; IC50 ([2]; PC3 cells): 100 to 1000 nM
